# From patent US20090143279A1 (priority 2007, published 2009)
# Where a name gives a salt, the structure may show the parent alone. Read-outs that look alike come from different tables or passages of the source. Where a SMILES comes first, the peptide text is derived from it. The star is where a group is joined. Tfa = O=C(C(F)(F)F)*
# Key:
# cytochrome c = type: cell-based, mouse; settings: for cyt c (composite Z-score): normalized score vs mock-treated (DMSO) wells
# reactive oxygen species = type: cell-based, mouse; settings: for ROS (composite Z-score): normalized score vs mock-treated (DMSO) wells
# [1] = test system: cellular dehydrogenase activity; settings: for MTT (composite Z-score): normalized score vs mock-treated (DMSO) wells
# mtOXPHOS transcripts = type: cell-based, mouse; settings: for mitoOX (composite Z-score): normalized score vs mock-treated (DMSO) wells
# OXPHOS gene expression = type: cell-based, mouse; settings: for GE-HTS (composite Z-score): normalized score vs mock-treated (DMSO) wells
# nuOXPHOS transcripts = type: cell-based, mouse; settings: for nucOX (composite Z-score): normalized score vs mock-treated (DMSO) wells
# C2C12 myotubes = settings: for Viability (composite Z-score): normalized score vs mock-treated (DMSO) wells
# [2] = test system: mitochondrial membrane potential; type: cell-based, mouse; settings: for ΔΨm (composite Z-score): normalized score vs mock-treated (DMSO) wells
# [3] = composite Z-score vs DMSO, Conc 20 μM
# [4] = composite Z-score vs DMSO wells, Conc 20 μM
# [5] = normalized composite Z-score vs mock-treated (DMSO) wells, Conc 20 μM
# [6] = Table 4, C2C12 myotubes, 48 h, composite Z-score
# [7] = composite Z-score vs DMSO, Conc 8.92 μM
# [8] = 20 μM, composite Z-score vs DMSO
# [9] = composite Z-score vs mock-treated (DMSO) wells, Conc 20 μM
# [10] = composite Z-score vs mock-treated (DMSO) wells, concentration of each compound in μM
# [11] = composite Z-score vs DMSO, Conc 15.08 μM
# [12] = Table 7, C2C12 myotubes, 48 h, composite Z-score
# cytochrome c, sequence (P62897 whole entry): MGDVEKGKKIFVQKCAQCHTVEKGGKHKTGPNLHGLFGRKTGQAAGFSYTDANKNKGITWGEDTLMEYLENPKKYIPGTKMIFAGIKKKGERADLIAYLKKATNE
compound,measurement,setting,value
COc1cc(O)c(C(=O)/C=C/c2ccccc2)c(OC)c1 [flavokawain B],cyt c,cytochrome c; [3],0.708
same,ROS,reactive oxygen species; [3],0.292
same,MTT,[1]; [3],−0.298
same,mitoOX,mtOXPHOS transcripts; [3],−1.291
same,GE-HTS,OXPHOS gene expression; [3],−1.453
same,nucOX,nuOXPHOS transcripts; [3],−1.423
same,Viability,C2C12 myotubes; [3],0.583
same,ΔΨm,[2]; [3],−0.302
C#CC1(O)CC[C@H]2[C@@H]3CCC4=CC(=O)CC[C@@H]4[C@H]3CC[C@@]21CC (mixture of isomers) [norgestrel],cyt c,cytochrome c; [4],−0.027
same,ROS,reactive oxygen species; [4],0.831
same,MTT,[1]; [4],−0.761
same,mitoOX,mtOXPHOS transcripts; [4],−0.187
same,GE-HTS,OXPHOS gene expression; [4],−0.225
same,nucOX,nuOXPHOS transcripts; [4],−0.183
same,Viability,C2C12 myotubes; [4],−0.966
same,ΔΨm,[2]; [4],−0.965
12a-hydroxy-5-deoxydehydromunduserone [reference compound],cyt c,cytochrome c; [5],−0.179
same,ROS,reactive oxygen species; [6],0.823
same,ROS,reactive oxygen species; [5],0.823
same,MTT,[1]; [6],−1.976
same,MTT,[1]; [5],−1.976
same,mitoOX,mtOXPHOS transcripts; [5],0.239
same,GE-HTS,OXPHOS gene expression; [5],0.211
same,nucOX,nuOXPHOS transcripts; [5],0.193
same,Viability,C2C12 myotubes; [6],−0.940
same,Viability,C2C12 myotubes; [5],−0.940
same,ΔΨm,"[2]; Table 4, C2C12 myotubes, 48 h, JC-1, composite Z-score",−0.179
same,ΔΨm,[2]; [5],−0.179
CC(=O)Oc1cccc(C(=O)O)c1OC(C)=O [dipyrocetyl],cyt c (composite Z-score),cytochrome c; Conc 20 μM,0.865
same,ROS (composite Z-score),reactive oxygen species; Conc 20 μM,1.260
same,MTT (composite Z-score),[1]; Conc 20 μM,−1.355
same,mitoOX (composite Z-score),mtOXPHOS transcripts; Conc 20 μM,−0.341
same,GE-HTS (composite Z-score),OXPHOS gene expression; Conc 20 μM,−0.311
same,nucOX (composite Z-score),nuOXPHOS transcripts; Conc 20 μM,−0.242
same,Viability (composite Z-score),C2C12 myotubes; Conc 20 μM,0.452
same,ΔΨm (composite Z-score),[2]; Conc 20 μM,−0.363
CC(CN(C)C)CN1c2ccccc2Sc2ccccc21 (stereo not drawn) [trimeprazine],cyt c,cytochrome c; [7],−2.786
same,cyt c,cytochrome c; [3],−0.086
same,ROS,reactive oxygen species; [7],1.314
same,ROS,reactive oxygen species; [3],−0.430
same,MTT,[1]; [7],−2.221
same,MTT,[1]; [3],−2.227
same,mitoOX,mtOXPHOS transcripts; [7],−0.778
same,mitoOX,mtOXPHOS transcripts; [3],0.208
same,GE-HTS,OXPHOS gene expression; [7],−0.942
same,GE-HTS,OXPHOS gene expression; [3],−0.013
same,nucOX,nuOXPHOS transcripts; [7],−0.936
same,nucOX,nuOXPHOS transcripts; [3],−0.130
same,Viability,C2C12 myotubes; [7],0.760
same,Viability,C2C12 myotubes; [3],−1.472
same,ΔΨm,[2]; [7],−0.821
same,ΔΨm,[2]; [3],1.905
Oc1ncnc2[nH]ncc12 [allopurinol],cyt c,cytochrome c; [8],−0.105
same,ROS,reactive oxygen species; [8],1.448
same,MTT,[1]; [8],−1.611
same,mitoOX,mtOXPHOS transcripts; [8],−0.798
same,GE-HTS,OXPHOS gene expression; [8],−0.869
same,nucOX,nuOXPHOS transcripts; [8],−0.849
same,Viability,C2C12 myotubes; [8],0.376
same,ΔΨm,[2]; [8],−0.204
CC(C)=CCOc1cc2oc(=O)ccc2cc1O [prenyletin],cyt c,cytochrome c; [9],0.150
same,ROS,reactive oxygen species; [9],−0.090
same,MTT,[1]; [9],−1.166
same,mitoOX,mtOXPHOS transcripts; [9],0.282
same,GE-HTS,OXPHOS gene expression; [9],0.113
same,nucOX,nuOXPHOS transcripts; [9],−0.015
same,Viability,C2C12 myotubes; [9],0.919
same,ΔΨm,[2]; [9],0.772
"COc1cc(O)c2c(=O)c(-c3ccc(O)cc3)coc2c1OC [isotectorigenin, 7-methyl ether]",cyt c (composite Z-score),cytochrome c; Conc 20 μM,−0.477
same,ROS (composite Z-score),reactive oxygen species; Conc 20 μM,0.644
same,MTT (composite Z-score),[1]; Conc 20 μM,−1.606
same,mitoOX (composite Z-score),mtOXPHOS transcripts; Conc 20 μM,−0.360
same,GE-HTS (composite Z-score),OXPHOS gene expression; Conc 20 μM,−0.592
same,nucOX (composite Z-score),nuOXPHOS transcripts; Conc 20 μM,−0.674
same,Viability (composite Z-score),C2C12 myotubes; Conc 20 μM,0.633
same,ΔΨm (composite Z-score),[2]; Conc 20 μM,0.574
3-deoxo-3beta-acetoxydeoxydihydrogedunin,cyt c,cytochrome c; [9],0.398
same,ROS,reactive oxygen species; [9],1.249
same,MTT,[1]; [9],−1.633
same,mitoOX,mtOXPHOS transcripts; [9],−0.559
same,GE-HTS,OXPHOS gene expression; [9],−0.742
same,nucOX,nuOXPHOS transcripts; [9],−0.791
same,Viability,C2C12 myotubes; [9],1.066
same,ΔΨm,[2]; [9],1.215
COc1cccc(C=CC(=O)O)c1C(C)C [2-isopropyl-3-methoxycinnamic acid],cyt c,cytochrome c; [5],0.274
same,ROS,reactive oxygen species; [5],0.433
same,MTT,[1]; [5],−2.002
same,mitoOX,mtOXPHOS transcripts; [5],0.071
same,GE-HTS,OXPHOS gene expression; [5],0.153
same,nucOX,nuOXPHOS transcripts; [5],0.153
same,Viability,C2C12 myotubes; [5],0.040
same,ΔΨm,[2]; [5],−0.155
CC(C)[C@H](NC(=O)[C@H](Cc1ccc(O)cc1)NC(=O)[C@@H](NC(=O)C(F)(F)F)C(C)C)C(=O)O [TFA-Val-Tyr-Val-OH] (Tfa-Val-Tyr-Val-OH),cyt c,cytochrome c; [10],−0.785
same,ROS,reactive oxygen species; [10],0.471
same,MTT,[1]; [10],−1.019
same,mitoOX,mtOXPHOS transcripts; [10],−0.008
same,GE-HTS,OXPHOS gene expression; [10],0.294
same,nucOX,nuOXPHOS transcripts; [10],0.415
same,Viability,C2C12 myotubes; [10],−0.143
same,ΔΨm,[2]; [10],−0.510
C[C@]12CCC(=O)C=C1CCc1ccc(O)cc12,cyt c,cytochrome c; [9],−0.516
same,ROS,reactive oxygen species; [9],0.676
same,MTT,[1]; [9],−0.984
same,mitoOX,mtOXPHOS transcripts; [9],0.846
same,GE-HTS,OXPHOS gene expression; [9],0.075
same,nucOX,nuOXPHOS transcripts; [9],−0.281
same,Viability,C2C12 myotubes; [9],−0.592
same,ΔΨm,[2]; [9],−0.484
"COc1ccc(C[C@H]2NC[C@H](O)[C@H]2OC(C)=O)cc1 [Anisomycin, reference compound]",cyt c,cytochrome c; [11],−2.841
same,ROS,reactive oxygen species; [11],−2.958
same,MTT,[1]; [11],−4.623
same,mito-OXPHOS Z,mtOXPHOS transcripts; [12],−3.55
same,mitoOX,mtOXPHOS transcripts; [11],−3.545
same,GE-HTS,OXPHOS gene expression; [11],−0.353
same,nucOXPHOS Z,nuOXPHOS transcripts; [12],1.26
same,nucOX,nuOXPHOS transcripts; [11],1.256
same,nuOXPHOS expression,"nuOXPHOS transcripts; screen, relative to mtOXPHOS, in words",preferentially increase
same,Viability,C2C12 myotubes; [11],−2.835
same,ΔΨm,[2]; [11],−1.537
CC1(C)CC[C@]2(C(=O)O)CC[C@]3(C)C(=CC[C@@H]4[C@@]5(C)CC[C@H](O)[C@@](C)(CO)[C@@H]5CC[C@]43C)[C@@H]2C1 [hederagenin],cyt c,cytochrome c,0.945
same,ROS,reactive oxygen species,0.385
same,MTT,[1],−1.259
same,mitoOX,mtOXPHOS transcripts,−0.540
same,GE-HTS,OXPHOS gene expression,−0.654
same,nucOX,nuOXPHOS transcripts,−0.630
same,Viability,C2C12 myotubes,0.310
same,ΔΨm,[2],−0.901
CC(=O)N[C@@H](CC(=O)O)C(=O)O [N-acetylaspartic acid],cyt c (composite Z-score),cytochrome c; Conc 20 μM,0.753
same,ROS (composite Z-score),reactive oxygen species; Conc 20 μM,0.309
same,MTT (composite Z-score),[1]; Conc 20 μM,−0.456
same,mitoOX (composite Z-score),mtOXPHOS transcripts; Conc 20 μM,−1.046
same,GE-HTS (composite Z-score),OXPHOS gene expression; Conc 20 μM,−0.670
same,nucOX (composite Z-score),nuOXPHOS transcripts; Conc 20 μM,−0.436
same,Viability (composite Z-score),C2C12 myotubes; Conc 20 μM,−0.266
same,ΔΨm (composite Z-score),[2]; Conc 20 μM,−0.663
"CC(C)CCC[C@@H](C)[C@H]1CC[C@H]2[C@@H]3C[C@@H](O)[C@@]4(O)C[C@@H](O)CC[C@]4(C)[C@H]3CC[C@]12C [cholestan-3beta,5alpha,6beta-triol]",cyt c (composite Z-score),cytochrome c; Conc 20 μM,0.815
same,ROS (composite Z-score),reactive oxygen species; Conc 20 μM,1.000
same,MTT (composite Z-score),[1]; Conc 20 μM,0.120
same,mitoOX (composite Z-score),mtOXPHOS transcripts; Conc 20 μM,0.074
same,GE-HTS (composite Z-score),OXPHOS gene expression; Conc 20 μM,0.382
same,nucOX (composite Z-score),nuOXPHOS transcripts; Conc 20 μM,0.523
same,Viability (composite Z-score),C2C12 myotubes; Conc 20 μM,−0.869
same,ΔΨm (composite Z-score),[2]; Conc 20 μM,−0.575
CC1(O)/C=C\C=C(\CO)C2CC(C)(C)C2(O)CC1 (stereo not drawn) [punctaporin B],cyt c,cytochrome c; [5],0.175
same,ROS,reactive oxygen species; [5],0.731
same,MTT,[1]; [5],−0.596
same,mitoOX,mtOXPHOS transcripts; [5],−0.555
same,GE-HTS,OXPHOS gene expression; [5],−0.242
same,nucOX,nuOXPHOS transcripts; [5],−0.049
same,Viability,C2C12 myotubes; [5],0.554
same,ΔΨm,[2]; [5],−0.174
phytol,cyt c,cytochrome c; [5],0.020
same,ROS,reactive oxygen species; [5],0.940
same,MTT,[1]; [5],−0.544
same,mitoOX,mtOXPHOS transcripts; [5],−0.270
same,GE-HTS,OXPHOS gene expression; [5],−0.177
same,nucOX,nuOXPHOS transcripts; [5],−0.098
same,Viability,C2C12 myotubes; [5],−0.520
same,ΔΨm,[2]; [5],−0.233
